Experimental data reported in patent US6495517B2, “Cyclooxygenase inhibitor” (A. Natterman & Cie. GmbH, priority 1998, dated 2002).

How the values were obtained:
[1] = LD50 determination, intraperitoneal administration; conditions: mouse, in vivo, ip
[2] = LD50 determination, oral administration; conditions: mouse, in vivo
rat = assay: LD50 determination in rats; type: in vivo
[3] = molecular target: T1, Cyclooxygenase 2 derived from sheep placentae (Ovis aries, UniProt P79208); assay: In vitro inhibition of cyclooxygenase 2 activity (synthesis of prostaglandin H2 from 14C-arachidonic acid, TLC autoradiography); conditions: sheep placenta COX-2, 35° C., 30 min
T1 sequence (P79208 17-603): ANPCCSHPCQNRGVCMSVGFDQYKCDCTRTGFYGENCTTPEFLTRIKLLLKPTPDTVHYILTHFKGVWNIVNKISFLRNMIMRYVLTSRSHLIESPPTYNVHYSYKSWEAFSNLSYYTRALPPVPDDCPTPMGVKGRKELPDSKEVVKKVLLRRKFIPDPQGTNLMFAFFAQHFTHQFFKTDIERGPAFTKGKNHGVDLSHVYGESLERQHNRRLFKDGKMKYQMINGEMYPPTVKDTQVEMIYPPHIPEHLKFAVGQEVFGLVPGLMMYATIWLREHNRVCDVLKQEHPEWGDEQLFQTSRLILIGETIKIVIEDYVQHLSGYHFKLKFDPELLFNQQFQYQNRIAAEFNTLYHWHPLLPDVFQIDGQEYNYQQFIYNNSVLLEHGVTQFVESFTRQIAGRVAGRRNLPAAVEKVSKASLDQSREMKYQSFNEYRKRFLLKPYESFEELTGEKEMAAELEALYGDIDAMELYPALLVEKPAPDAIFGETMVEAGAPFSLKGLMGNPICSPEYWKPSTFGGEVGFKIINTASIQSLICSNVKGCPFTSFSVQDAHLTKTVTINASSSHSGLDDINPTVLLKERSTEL
Protocol: Arachidonic acid was used as the substrate in the present example. Ten μl of arachidonic acid was dissolved in methanol (10 mg/ml) and mixed with 5 μCi of ^14C-labeled arachidonic acid; and to obtain a dried substrate, the solvent was evaporated by blowing with nitrogen gas at room temperature. Subsequently, the substrate was dissolved in 50 μl of dimethylsulfoxide (DMSO), and 10 ml of 5 mM Tris-HCl buffer (pH 8.0) containing 2 mM phenol was added to the substrate solution, followed by sonication to completely dissolve the sample. Separately, test compounds having final concentrations of 0.1-10 μM were prepared. […] Five μl of each compound solution was added to 5 μl of the above substrate solution, followed by mixing. The samples were then preincubated at 35° C. for about 10 min. Cyclooxygenase 2 derived from sheep placentae (Cayman Chem.) had been separately diluted 10-fold with the above buffer, and 20 μl of the enzyme solution was added to each of the above samples. The enzyme reaction was carried out at 35° C. for 30 min, and stopped by adding 0.5 ml of ice-cold ethanol to each sample. Then, to 0.9 ml of each sample, 2.0 ml of 2% acetic acid solution was added. Arachidonic acid and its metabolite prostaglandin H2 were then extracted with 3.0 ml of ethyl acetate. From each extracted sample, a 2.0-ml portion was transferred to a new test tube. The solvent was distilled off from the transferred samples under reduced pressure, and the samples were dried in vacuo. Then each dried sample was dissolved in 100 μl of methanol, out of which 5 μl was subjected to analysis by high resolution thin layer chromatography. Arachidonic acid and its metabolite prostaglandin H2 were separated by chromatography with a developing solution of chloroform, ethyl acetate, methanol, acetic acid and water in proportions of 70:30:8:1:0.5 (v/v). The chromatography plate, together with a ^14C-standard substance, was exposed to an imaging plate (Fuji Film), and was analyzed with Fuji Film Bio-Image analyzer BAS-2000 to obtain an autoradiogram. By scanning of spots corresponding to the standard radioactive samples, a standard dose-response curve was plotted. Then, by use of the standard curve, each scanned value of arachidonic acid spots and prostaglandin H2 spots was converted to a amount of radiation. Indomethacin was purchased from Sigma, and PZ25 was a gift from Rhone-Poulenc Rorer.

SMILES	LD50 [1] [mg/kg]	LD50 [2] [mg/kg]	LD50 (rat)	Generated Amount of Prostaglandin H2 (%) ([3]; dose of compound 1 μM)	Generated Amount of Prostaglandin H2 (%) ([3]; dose of compound 3 μM)	Generated Amount of Prostaglandin H2 (%) ([3]; dose of compound 10 μM)	Generated Amount of Prostaglandin H2 (%) ([3]; dose of compound 30 μM)
O=c1c2ccccc2[se]n1-c1ccccc1 [Compound A, 2-phenyl-1,2-benzisoselenazol-3(2H)-one]	740	≥ 6810	large doses were required	91.8 ± 14.3	78.6 ± 5.28	46.88 ± 6.49	20.10 ± 1.95
O=c1c2ccccc2sn1-c1ccccc1 [PZ25, 2-phenyl-1,2-benzisothiazol-3(2H)-one, reference compound]					103.25 ± 9.29	103.53 ± 11.2	93.9 ± 9.06
